From patent US20260015358A1, “BICYCLIC DERIVATIVES, COMPOSITIONS AND USES THEREOF” (Danatlas Pharmaceuticals Co., Ltd., priority 2023, published 2026) come the findings set out here.

The term IC50 denotes the point on the concentration scale where inhibition reaches its midpoint. Lower therefore signals inhibition by little substance.

For test [1], the target named is T1, WRN [UniPro: Q14191 (WRN_HUMAN), N500-C946] (Homo sapiens (Human), UniProt Q14191). The test can be described thus: WRN ATPase assay (ADP-Glo). It counts as biochemical. To be noted: WRN enzymatic activity assay. For orientation: ADP-Glo first removes unused ATP, then detects ADP through luciferase.
T1 sequence (Q14191 500-946): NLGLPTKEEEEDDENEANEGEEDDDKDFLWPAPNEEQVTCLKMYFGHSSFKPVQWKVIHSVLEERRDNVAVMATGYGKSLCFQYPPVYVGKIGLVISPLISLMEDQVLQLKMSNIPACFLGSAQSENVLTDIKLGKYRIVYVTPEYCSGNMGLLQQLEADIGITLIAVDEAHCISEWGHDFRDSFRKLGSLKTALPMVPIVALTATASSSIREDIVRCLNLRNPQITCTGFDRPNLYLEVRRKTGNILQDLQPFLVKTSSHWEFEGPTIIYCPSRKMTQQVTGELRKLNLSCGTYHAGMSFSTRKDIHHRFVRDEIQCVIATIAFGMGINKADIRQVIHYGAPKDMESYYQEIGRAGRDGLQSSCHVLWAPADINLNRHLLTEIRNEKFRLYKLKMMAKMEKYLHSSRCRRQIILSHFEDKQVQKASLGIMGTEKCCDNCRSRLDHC
Test [2] addresses T1, WRN [UniPro: Q14191 (WRN_HUMAN), N500-C946]. As to the kind of experiment: WRN unwinding assay (FORKF DNA, fluorescence). It counts as biochemical. To be noted: Table 14.

Some results are limits rather than exact numbers.

As to `CCc1c(N2CCN(C(=O)c3ccnc4cc[nH]c34)CC2)c(=O)n2nc(C3=CCOCC3)nc2n1CC(=O)Nc1ccc(Cl)cc1C(F)(F)F` [Example 68, 2-(6-(4-(1H-Pyrrolo[3,2-b]pyridine-7-carbonyl)piperazin-1-yl)-2-(3,6-dihydro-2H-pyran-4-yl)-5-ethyl-7-oxo-[1,2,4]triazolo[1,5-a]pyrimidin-4(7H)-yl)-N-(4-chloro-2-(trifluoromethyl)phenyl)acetamide], the IC50 in test [1] and in test [2] was 100 to 1000 nM in each case.

`CCc1c(N2CCN(C(=O)c3nn4ccnc4cc3O)CC2)c(=O)n2nc(C3=CCOCC3)nc2n1CC(=O)Nc1ccc(C(F)(F)F)cc1Cl` [Example 85, N-(2-Chloro-4-(trifluoromethyl)phenyl)-2-(2-(3,6-dihydro-2H-pyran-4-yl)-5-ethyl-6-(4-(7-hydroxyimidazo[1,2-b]pyridazine-6-carbonyl)piperazin-1-yl)-7-oxo-[1,2,4]triazolo[1,5-a]pyrimidin-4(7H)-yl)acetamide]: the IC50 in test [1] and in test [2] was less than 100 nM in each case.

In the case of `CCc1c(N2CCN(C(=O)CNC(=O)c3ccccc3)CC2)c(=O)n2nc(-c3cnc4c(c3)CCCO4)nc2n1CC(=O)Nc1ccc(C(F)(F)F)cc1Cl` [Example 236, N-(2-(4-(4-(2-((2-Chloro-4-(trifluoromethyl)phenyl)amino)-2-oxoethyl)-2-(3,4-dihydro-2H-pyrano[2,3-b]pyridin-6-yl)-5-ethyl-7-oxo-4,7-dihydro-[1,2,4]triazolo[1,5-a]pyrimidin-6-yl)piperazin-1-yl)-2-oxoethyl)benzamide], the 50% inhibitory concentration (IC50) in test [1] and in test [2] was 100 to 1000 nM throughout.

Turning to `CCC(=O)N(C(=O)Cn1c(CC)c(N2CCN(S(N)(=O)=O)CC2)c(=O)n2nc(C3=CCOCC3)nc12)c1ccc(C(F)(F)F)cc1Cl` [Example 35, N-(2-Chloro-4-(trifluoromethyl)phenyl)-N-(2-(2-(3,6-dihydro-2H-pyran-4-yl)-5-ethyl-7-oxo-6-(4-sulfamoylpiperazin-1-yl)-[1,2,4]triazolo[1,5-a]pyrimidin-4(7H)-yl)acetyl)propionamide], the IC50 in test [1] and in test [2] was 100 to 1000 nM throughout.

As for `CCc1c(N2CCN(C(=O)CNC(=O)NCc3ccccc3F)CC2)c(=O)n2nc(C3=CCOCC3)nc2n1CC(=O)Nc1ccc(C(F)(F)F)cc1Cl` [Example 191, N-(2-Chloro-4-(trifluoromethyl)phenyl)-2-(2-(3,6-dihydro-2H-pyran-4-yl)-5-ethyl-6-(4-(((2-fluorobenzyl)carbamoyl)glycyl)piperazin-1-yl)-7-oxo-[1,2,4]triazolo[1,5-a]pyrimidin-4(7H)-yl)acetamide], the IC50 in test [1] and in test [2] was less than 100 nM in each case.

For `CCc1c(N2CCN(C(=O)CNC(=O)c3ccc(OC)cc3)CC2)c(=O)n2nc(C3=CCOCC3)nc2n1CC(=O)Nc1ccc(C(F)(F)F)cc1Cl` [Example 119, N-(2-(4-(4-(2-((2-Chloro-4-(trifluoromethyl)phenyl)amino)-2-oxoethyl)-2-(3,6-dihydro-2H-pyran-4-yl)-5-ethyl-7-oxo-4,7-dihydro-[1,2,4]triazolo[1,5-a]pyrimidin-6-yl)piperazin-1-yl)-2-oxoethyl)-4-methoxybenzamide], the IC50 in test [1] and in test [2] was less than 100 nM in each case.

In the case of `CCc1c(N2CCN(C(=O)CNC(=O)Nc3ccccc3Cl)CC2)c(=O)n2nc(C3=CCOCC3)nc2n1CC(=O)Nc1ccc(C(F)(F)F)cc1Cl` [Example 181, N-(2-Chloro-4-(trifluoromethyl)phenyl)-2-(6-(4-(((2-chlorophenyl)carbamoyl)glycyl)piperazin-1-yl)-2-(3,6-dihydro-2H-pyran-4-yl)-5-ethyl-7-oxo-[1,2,4]triazolo[1,5-a]pyrimidin-4(7H)-yl)acetamide], the IC50 in test [1] and in test [2] was less than 100 nM each time.
